Test results reported in paper PMC12005787, “Synthetic Lethality of SHP2 and XIAP Suppresses Proliferation and Metastasis in KRAS‐mutant Nonsmall Cell Lung Cancer” (Advanced Science, 2025).

Test system: A549 and NCI‐H2122 cells
Assay: Compound removal from culture media (western blotting)
Format: cell-based, human
Excerpt: Due to the poor membrane permeability of SHP2 catalytic inhibitors,^[ [18], [30] ^] we examined the effect of embelin on SHP2 expression and phosphorylation after removing the compound from the culture media of A549 and NCI‐H2122 cells.

- membrane permeability (inferred from removal after 6 h vs continuous 24 h treatment): strong membrane permeability
Compound: CCCCCCCCCCCC1=C(O)C(=O)C=C(O)C1=O [Embelin]
